The supplement of paper PMC8967900

Key:
Test in all cases: selective drug sensitivity score (sDSS, relative to normal bone marrow) (sDSS (score)); higher = more potent and effective on the cell line relative to normal bone marrow cells
Conditions in all cases: 72 h
[1] = system: LC4-1
[2] = system: MHH-CALL-4
[3] = system: 697
[4] = system: NALL-1
[5] = system: COG-LL-319h
[6] = system: SUP-B15
[7] = system: MOLT-14
[8] = system: 380
[9] = system: COG-LL-394h
[10] = system: P30-OHKUBO
[11] = system: KASUMI-10
[12] = system: KARPAS-45
[13] = system: PF-382
[14] = system: CCRF-HSB2
[15] = system: CCRF-CEM
[16] = system: SEM cells
[17] = system: ALL-PO
[18] = system: HPB-ALL
[19] = system: JURKAT
[20] = system: PEER
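Note: ALL cell lines in 384-well plates, five doses spanning 10,000-fold, each plate scaled between vehicle and 100 µmol/L benzalkonium chloride controls, sDSS an adapted area-under-curve metric.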

SMILES	selective drug sensitivity score [1]	selective drug sensitivity score [2]	selective drug sensitivity score [3]	selective drug sensitivity score [4]	selective drug sensitivity score [5]	selective drug sensitivity score [6]	selective drug sensitivity score [7]	selective drug sensitivity score [8]	selective drug sensitivity score [9]	selective drug sensitivity score [10]	selective drug sensitivity score [11]	selective drug sensitivity score [12]	selective drug sensitivity score [13]	selective drug sensitivity score [14]	selective drug sensitivity score [15]	selective drug sensitivity score [16]	selective drug sensitivity score [17]	selective drug sensitivity score [18]	selective drug sensitivity score [19]	selective drug sensitivity score [20]
CC(C)c1cc(-c2n[nH]c(=O)n2-c2ccc3c(ccn3C)c2)c(O)cc1O [Ganetespib] (top concentration 1000 nM)	1.44	-0.56	1.24	-1.86	1.14	1.74	1.74	2.74	-3.26	2.24	4.64	-0.26	1.64	4.34	2.04	1.24	3.84	0.64	-2.46	-1.86
C=CC(=O)N1CCC[C@@H](n2nc(-c3ccc(Oc4ccccc4)cc3)c3c(N)ncnc32)C1 [Ibrutinib] (top concentration 1000 nM)	1	0	2.2	0	5.2	10	2.6	0.9	0	1.2	0	3.4	0	7	0.1	0	1.8	1.5	0	0.6
CC(C)NC(=O)COc1cccc(-c2nc(Nc3ccc4[nH]ncc4c3)c3ccccc3n2)c1 [KD025] (top concentration 5000 nM)	6.44	1.04	-0.66	2.54	-1.06	2.14	-3.36	-5.36	-1.36	1.84	-5.36	-2.76	1.04	-3.86	-0.66	-2.96	5.24	-3.26	-3.06	-1.56
CCc1cnn2c(NCc3ccc[n+]([O-])c3)cc(N3CCCC[C@H]3CCO)nc12 [Dinaciclib] (top concentration 1000 nM)	-3.64	-4.04	-2.64	-6.24	7.16	-3.64	-3.24	-5.34	-1.74	0.26	-2.24	-0.34	-5.94	-2.74	-2.54	-4.34	-6.64	-4.34	-5.64	-0.24
Cc1cc(C(C)Nc2ccccc2)c2nc(N3CCOCC3)cc(=O)n2c1 (stereo not given) [TGX-221] (top concentration 10000 nM)	-1.64	-1.44	0.16	-0.44	-1.64	0.36	-1.14	-1.64	-1.24	3.36	-1.64	1.46	-0.84	2.36	-0.54	5.46	1.16	-1.64	-0.74	-0.74
N[C@@H]1CCCN(c2c(/C=C3\SC(=O)NC3=O)cccc2-c2ccccc2)C1 [AZD1208] (top concentration 10000 nM)	-3.8	3.9	1.2	2.4	-4.4	-4.4	1.5	14.8	1	-1.1	-4.4	-3.3	-3.8	6.5	-4.4	-4.4	8.5	-4.4	-4.2	-2.7
Cn1c(Nc2ccc(C(F)(F)F)cc2)nc2cc(Oc3ccnc(-c4ncc(C(F)(F)F)[nH]4)c3)ccc21 [NVP-RAF265] (top concentration 1000 nM)	7.48	7.48	9.68	2.88	5.08	7.78	6.38	2.68	5.98	4.38	6.08	7.68	1.48	5.98	4.88	4.48	6.68	0.08	2.88	9.78
Cc1nc(Nc2ncc(C(=O)Nc3c(C)cccc3Cl)s2)cc(N2CCN(CCO)CC2)n1 [Dasatinib] (top concentration 1000 nM)	-2.8	-2.8	3.1	-2.8	9.2	30.2	4.2	-2.8	0.3	6.1	-2.8	1.7	10.8	37.8	-2.8	-2.4	-0.2	-2.8	-2.8	17.2
N#Cc1ccc(COC[C@H]2O[C@@H](n3c(NCc4ccc(Cl)c(Cl)c4)nc4c(N)ncnc43)[C@H](O)[C@@H]2O)cc1 (top concentration 10000 nM)	0.32	-0.68	4.72	-0.48	7.52	5.72	9.22	-0.98	-0.08	1.62	-0.68	7.82	8.82	9.92	7.62	5.22	4.82	4.32	4.72	10.7
Cc1ccc(C(=O)N(CCCN)[C@@H](c2oc3cc(Cl)ccc3c(=O)c2Cc2ccccc2)C(C)C)cc1 (top concentration 100 nM)	2.86	6.96	1.36	6.06	13	4.26	3.76	1.46	-2.24	4.06	1.96	7.16	0.86	9.56	2.76	5.66	-0.24	13.8	2.96	4.96
Nc1cccc2c1CN(C1CCC(=O)NC1=O)C2=O (stereo not given) [Lenalidomide] (top concentration 100000 nM)	-0.58	5.42	-2.28	-2.28	-1.78	-2.28	0.12	1.62	-2.28	-2.28	3.22	-2.28	-2.28	0.22	0.92	3.82	-2.28	-2.28	-2.28	-1.28
CC(C)(C)c1cnc(CSc2cnc(NC(=O)C3CCNCC3)s2)o1 [SNS-032] (top concentration 10000 nM)	-3.24	-1.04	-2.64	-4.94	-2.24	-3.14	-4.74	-6.64	-2.04	-0.34	-2.64	-2.24	-5.34	-2.24	-1.74	-3.24	-6.74	-4.74	-6.54	-4.94
CC1=NN(c2ccc(C(=O)O)cc2)C(=O)C1=Cc1ccc(-c2cc(C)c(C)cc2[N+](=O)[O-])o1 [C646] (top concentration 25000 nM)	1.84	-2.06	2.34	-2.06	11.7	5.04	3.84	-0.86	-0.66	3.94	-0.36	1.74	0.64	3.14	1.74	-0.26	5.04	5.74	0.94	-0.66
Cc1c(C(=O)Nc2ccc(N3C[C@@H](C)O[C@@H](C)C3)nc2)cccc1-c1ccc(OC(F)(F)F)cc1 [Sonidegib] (top concentration 10000 nM)	1.08	2.28	1.28	7.58	4.98	1.68	0.38	-3.92	-0.02	5.68	1.38	0.68	2.28	-1.42	-0.12	-3.92	3.98	3.08	2.48	0.88
CNc1nc(-c2ccc3c(N)n[nH]c3c2)cc(N2C[C@@H](C(=O)NC3CCCCC3)CC[C@H]2C)n1 (top concentration 10000 nM)	0.76	3.46	9.06	-0.14	2.96	9.96	-0.14	-0.14	-0.14	7.86	0.46	-0.14	2.76	-0.14	1.36	3.26	8.86	1.86	-0.14	-0.14
C/C=C1\NC(=O)[C@H]2CSSCC/C=C/[C@H](CC(=O)N[C@H](C(C)C)C(=O)N2)OC(=O)[C@H](C(C)C)NC1=O [Romidepsin] (top concentration 1000 nM)	1.76	3.06	3.16	2.06	1.16	4.16	2.16	8.56	-0.94	1.66	1.86	2.86	1.96	1.46	1.16	3.96	6.96	3.66	2.06	2.06
Cc1cc2c(C(C)C)c(O)c(O)c(C=O)c2c(O)c1-c1c(C)cc2c(C(C)C)c(O)c(O)c(C=O)c2c1O [AT-101] (top concentration 100000 nM)	9.28	3.98	3.08	4.58	4.48	5.78	4.98	-0.22	3.78	5.18	2.48	5.98	1.98	2.48	4.88	3.78	8.98	10.9	4.28	4.18
CN1CCN(c2nc(C3=C(c4c[nH]c5ccccc45)C(=O)NC3=O)c3ccccc3n2)CC1 [Sotrastaurin] (top concentration 10000 nM)	1.7	4.2	8	1.9	4.7	2.2	-2	4.5	0.2	3.1	7.7	-0.4	-1.9	3.5	-0.1	6.7	5	2.6	-1.7	4
